Calls of active or inactive are those of the source.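 Rule for the calls: active = compounds whose fitted half-maximal concentration in the cell-protection dose series is at or below a set limit; inactive = the rest.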 Some results are limits rather than exact numbers.

Broadly, the IC50 is the concentration that gives 50% inhibition.

The experiment deals with H9c2 cardiomyocytes, 2-deoxyglucose stress, ATP luminescence, 2 h. As to the kind of experiment: protection of cardiomyocytes from 2-deoxyglucose injury, dose response, cell-based, 2-deoxyglucose stress, uHTS hits (AID 588780).
In the case of `COc1ccc(C(C(=O)NC2CCCC2)N(C(=O)c2snc(C(N)=O)c2N)c2cccc(O)c2)cc1` (configuration not stated), the IC50 was > 79 µM (inactive).
Turning to `COc1cc(NC(=O)c2cc3c(C)nc4ccccc4c3o2)cc(OC)c1OC`, the IC50 was > 79 µM (inactive).
The result for `CCn1c(O)c(/C=N/N=C/c2ccccc2)c2ccc(C3=NNC(=O)CC3)cc21` reads > 79 µM (inactive).
Then `COc1cc(-c2nnc(-c3cc(OC)c(OC)c(OC)c3)o2)cc(OC)c1OC`, with > 79 µM (inactive); and `CCOC(=O)C1=C(C)Nc2ccccc2N=C1NC(=O)c1oc2ccccc2c1COC`, with > 79 µM (inactive); and `Cc1c(NC(=O)Cn2[nH]c(=O)c3ccccc3c2=O)c(=O)n(-c2ccccc2)n1C`, with > 79 µM (inactive).
Then `NC(=O)c1nsc(C(=O)N(c2ccccc2F)C(C(=O)NCc2ccccc2)c2ccc(O)cc2)c1N` (configuration not stated), with > 79 µM (inactive).
Turning to `COc1ccc(C(=O)COC(=O)Cc2n[nH]c(=O)c3ccccc23)c(OC)c1`, the IC50 was > 79 µM (inactive).
Turning to `O=C(COC(=O)Cc1n[nH]c(=O)c2ccccc12)NNC(=O)c1ccc(Cl)cc1`, the IC50 was > 79 µM (inactive).
On to `O=C(Nc1ccc2c(c1)OCO2)c1cnn2c(C(F)(F)F)cc(-c3ccco3)nc12`, for which the IC50 was 7.33 µM.
Take `FC(F)(F)c1nnc2ccc(N3CCCC3)nn12`: the IC50 is > 79 µM (inactive).
Then `CCOC(=O)c1ccc(-c2ccc(C3Nc4ccccc4C(=O)N3O)o2)cc1` (configuration not stated), with 20.4 µM.
The result for `O=C(COC(=O)c1ccccc1C(=O)OCC(=O)NCCc1c[nH]c2ccccc12)NCCc1c[nH]c2ccccc12` reads > 79 µM (inactive); that for `COc1ccccc1OP(=O)(Nc1cccnc1)Oc1ccccc1OC`, > 79 µM (inactive).
Then `CCOC(=O)N1CCN(C(=O)CSc2nc3c(cnn3-c3ccc(C)cc3)c(=O)[nH]2)CC1`, with > 79 µM (inactive).
As to `O=C(CCc1nc2ccccc2c(=O)[nH]1)NCCN1C(=O)S/C(=C\c2ccc(OC(F)F)cc2)C1=O`, the IC50 is > 79 µM (inactive).
Then `COc1ccc2cc3cc(C(=O)Nc4cc(OC)c(OC)c(OC)c4)oc3nc2c1`, with 27.5 µM.
The result for `CCOC(=O)c1c(C)nc2sc3c(=O)n(-c4ccc(C(C)=O)cc4)cnc3c2c1-c1ccc(OC)cc1` reads > 79 µM (inactive); that for `CCN(CC)S(=O)(=O)c1ccc(Nc2nc3ccccc3n3nnnc23)cc1`, > 79 µM (inactive).
Then `Nc1ccc2c(c1)[nH]c(=O)c1ccccc12`, with > 79 µM (inactive); and `O=C(COC(=O)Cc1n[nH]c(=O)c2ccccc12)Nc1ccc(Cl)cc1F`, with > 79 µM (inactive).
Consider `COc1ccc(C(=O)Nc2cccc(NC(=O)c3ccc(OC)c(OC)c3)n2)cc1OC`, for which the IC50 was > 79 µM (inactive).
For `CCN(CC(=O)Nc1c(F)cccc1F)C(=O)Cn1[nH]c(=O)c2ccccc2c1=O`, the IC50 is > 79 µM (inactive).
Then `Cn1c(=O)c2c(nc(NCc3ccc4c(c3)OCO4)n2C)n(C)c1=O`, with > 79 µM (inactive).
Then `Cc1cccc(NC(=O)c2nc[nH]c2C(=O)NCCCNC(=O)c2[nH]cnc2C(=O)Nc2cccc(C)c2)c1`, with 31.6 µM (inactive); and `Cn1nc(C(=O)Nc2nc(-c3ccccn3)cs2)c2ccccc2c1=O`, with 39.6 µM (inactive).
Then `c1ccc2c(c1)nc(Nc1ccc3c(c1)OCO3)c1nnnn12`, with 16.9 µM; and `CCn1nc(C(=O)NNC(=O)c2cc(Cl)ccc2OC)c2ccccc2c1=O`, with 74 µM (inactive); and `CC12CCC3C(CCC4CC(O)CCC43C)C1CC(O)C2` (configuration not stated), with > 79 µM (inactive).
As for `CCN(CC)c1ccc(C(=O)NNC(=O)CCc2nc3ccccc3c(=O)[nH]2)cc1`, the IC50 was > 79 µM (inactive).
The result for `O=C(Nc1cc(=O)c2ccccc2o1)N1CCCCC1` reads > 79 µM (inactive).
Then `Cc1nn(C)cc1C(C(=O)NC1CCCCC1)N(C(=O)Cc1cccs1)c1ccc(Cl)cc1` (configuration not stated), with 27.5 µM.

These data come from PubChem BioAssay AID588780 (Sanford-Burnham Center for Chemical Genomics, 2011).
